The record followed here is patent publication US20060134719A1, “Novel serine protease” (priority 2002, published 2006).

For the assay, the target named is T1, signal-FLAG-ARS-SerPDO culture supernatant (SEQ ID NO:2 237th to 464th) (Homo sapiens, UniProt Q7Z410).
T1 construct: made in house; host or cells: HEK293-EBNA
T1 sequence (Q7Z410 203-430): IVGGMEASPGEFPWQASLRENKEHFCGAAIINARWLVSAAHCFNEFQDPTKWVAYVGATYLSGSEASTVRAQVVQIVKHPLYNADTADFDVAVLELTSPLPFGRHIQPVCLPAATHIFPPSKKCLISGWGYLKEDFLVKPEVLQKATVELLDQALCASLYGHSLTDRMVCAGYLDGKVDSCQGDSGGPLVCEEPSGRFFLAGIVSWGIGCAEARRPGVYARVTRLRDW
Description: Enzymatic cleavage of MCA-labeled synthetic peptides by signal-FLAG-ARS-SerPDO culture supernatant. It counts as biochemical. Particulars: substrate 100 μM in TBS pH 7.5, 37° C.; never obtained with blank vector supernatant. The protocol:
The expression plasmids prepared in Examples 3 to 5 were introduced into HEK293-EBNA cell (Invitrogen) using a transfection reagent (FuGENE™6 transfection reagent; Roche) according to the instruction attached thereto. After the introduction of the plasmids, the culture medium was replaced with a serum-free culture medium within 12 to 16 hours and further incubated for another 48 to 60 hours. The culture supernatant was collected and resulting each liquid culture was centrifuged (3000 rpm, 10 minutes) with a centrifuge (Type 8800; Kubota) to obtain culture supernatants. After removing the culture supernatants, the remaining cells were washed with phosphate buffer (PBS; 10 mM sodium phosphate, pH 7.5) and then recovered by scraping from the culture plate by pipetting with phosphate buffer, and centrifuged with a centrifuge (Type 8800; Kubota) at 3000 rpm for 10 minutes. The resulting precipitate was suspended in phosphate buffer, which was defined as the cell fraction. The culture supernatants obtained by the introduction of pCEP-ARSF-FLAG, pCEP-signal-FLAG-ARS-extracellular and pCEP-signal-FLAG-ARS-SerPD are referred to as ARS-FLAG culture supernatant, signal-FLAG-ARS-extracellular culture supernatant, signal-FLAG-ARS-SerPD culture supernatant and signal-FLAG-ARS-SerPDO culture supernatant, respectively.
The method for detecting enzymatic cleavage activity using a synthetic peptide labeled with MCA (4-methyl-coumaryl-7-amide) in the C terminus was according to the method reported in an academic paper (Yasuoka, S. et al., Am. J. Respir. Cell Mol Biol., Vol. 16, 300-308, 1997), unless otherwise described. […] Subsequently, the fluorescence of AMC (7-amino-4-methyl-coumarin) released from the synthetic peptide by enzymatic cleavage was measured at a wavelength of 460 nm for measurement, using an excitation wavelength of 390 nm with a fluorescent plate reader (Fluostar, SLT).

*: point of attachment. AMC = Cc1cc(=O)oc2cc(N*)ccc12; Boc = CC(C)(C)OC(=O)*; OBn = c1ccc(CO*)cc1

Boc-Glu(OBn)-Ala-Arg-{AMC}: the “cleavage activity of synthetic peptide (fluorescence of released AMC)” value (“cleavage activity of synthetic peptide” for short) is given as “showed the cleavage activity”.

Turning to Boc-Gln-Arg-Arg-{AMC}, the “cleavage activity of synthetic peptide” value is “showed the cleavage activity”.

For Boc-Phe-Ser-Arg-{AMC}, the “cleavage activity of synthetic peptide” value was “showed the cleavage activity”.
